Patent publication US7557121B2, “Tetrahydronaphthyridine derivatives” (Pfizer Inc, priority 2004, dated 2009)

Legend:
hERG = target: T1, hERG (Homo sapiens, UniProt Q12809); assay: Radioligand binding assay for [3H]-dofetilide binding to the hERG product expressed in HEK-293S cells; conditions: human, membranes of HEK-293S cells expressing hERG, pH 7.4, probe [3H]-dofetilide (3H-UK068798); displacement of 3H-UK068798 (~5 nM) from membranes of hERG expressing HEK-293S cells; Cheng-Prusoff
T1 construct: host or cells: HEK-293S cells (membranes)
Description: (§1) A Radioligand Binding Assay for [^3H]-dofetilide Binding to the hERG Product Expressed in HEK-293S Cells
(§2) hERG expressing HEK-293S cells were obtained from University of Wisconsin and membranes prepared according to standard protocols. Membranes were diluted in assay buffer, consisting of Tris-HCl 50 mM; KCl 10 mM; MgCl2 1 mM pH 7.4 with NaOH, and were pre-coupled with 120 mg/ml YSi polylysine Scintillation Proximity Beads in a ratio of 16 ug protein to 1 mg bead for 2 hours at 4° C. The coupled beads were separated from uncoupled protein by centrifugation and re-suspended in cold assay buffer to give a working solution of 6.25 mgs/ml. 20 μl of test compound was added to a 96-well microtiteplate at a final assay top concentration of 10 μM in serial ½ log dilutions (1 in 3.162) to generate at 10 point IC50 curve. 20 μl of ^3H-UK068798 (Dofetilide, Amersham; specific activity 78-83 Ci/mmole) was placed in each well of a 96 well plate to a final assay concentration of ˜5 nM. To this, 160 μl of bead/membrane mixture was added. The assay plates were shaken for 1 hour at room temperature and incubated for a further 30 minutes at room temperature for beads to settle. The plates were then read on a Packard TopCount NXT. The percentage displacement of ^3H-UK068798 was calculated using 0% as defined by 1% DMSO vehicle in well and 100% as defined by 10 μM UK-068798. Dose response curves were fitted using a four parameter logistical fit and the Ki value was derived using the Cheng-Prusoff equation (Cheng, Y. C. & Prusoff, W. H. (1973). Biochem. Pharmacol., 22, 3099-3108. )

[1] = target: T2, human histamine H3 receptor (Homo sapiens, UniProt Q9Y5N1); assay: H3 cell based functional assay (cAMP through β-lactamase reporter gene activity); conditions: functional Ki from antagonist IC50 by Cheng-Prussoff; HEK-293 cells, 10 μM forskolin, 1 nM imetit
T2 construct: expressed in transfected cells; host or cells: HEK-293 cells expressing a CRE β-lactamase reporter gene
Description: H3 Cell Based Functional Assay Compounds were evaluated using a cell based functional assay measuring cAMP through β-lactamase reporter gene activity. A stable cell line was generated from HEK-293 cells expressing a CRE β-lactamase reporter gene and transfected with human histamine H3 receptor cDNA. Cells were seeded at a density of 500,000 cells/ml, and grown overnight in MEM (Invitrogen) supplemented with 1% dialysed FBS (Sigma), 2 mM glutamine (Sigma), 1 mM sodium pyruvate (Sigma), 0.1 mM non essential amino acids (Invitrogen) and 25 mM HEPES (Sigma) in poly D lysine coated 384 well plates (BD Biosciences).

hERG product = target: T3, hERG product (Homo sapiens, UniProt Q12809); assay: Radioligand binding assay for [3H]-dofetilide binding to the hERG product expressed in HEK-293S cells; conditions: displacement of 3H-UK068798 (~5 nM) from membranes of hERG expressing HEK-293S cells; Cheng-Prusoff
T3 construct: host or cells: HEK-293S cells (membranes)
Description: as §1, §2

T2 sequence (Q9Y5N1 whole entry): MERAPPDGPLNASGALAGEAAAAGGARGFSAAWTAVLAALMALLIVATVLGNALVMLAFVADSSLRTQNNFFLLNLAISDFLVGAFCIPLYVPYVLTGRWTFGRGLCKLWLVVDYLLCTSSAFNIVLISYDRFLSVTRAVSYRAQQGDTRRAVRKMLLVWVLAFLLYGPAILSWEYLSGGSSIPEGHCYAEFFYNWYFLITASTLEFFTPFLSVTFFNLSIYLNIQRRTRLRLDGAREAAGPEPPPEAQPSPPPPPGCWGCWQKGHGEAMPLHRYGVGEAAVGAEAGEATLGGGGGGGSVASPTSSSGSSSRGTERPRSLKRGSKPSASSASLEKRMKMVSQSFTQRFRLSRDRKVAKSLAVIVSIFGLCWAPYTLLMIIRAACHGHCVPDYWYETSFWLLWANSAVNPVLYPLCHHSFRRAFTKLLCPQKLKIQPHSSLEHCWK
T3 sequence (Q12809 whole entry): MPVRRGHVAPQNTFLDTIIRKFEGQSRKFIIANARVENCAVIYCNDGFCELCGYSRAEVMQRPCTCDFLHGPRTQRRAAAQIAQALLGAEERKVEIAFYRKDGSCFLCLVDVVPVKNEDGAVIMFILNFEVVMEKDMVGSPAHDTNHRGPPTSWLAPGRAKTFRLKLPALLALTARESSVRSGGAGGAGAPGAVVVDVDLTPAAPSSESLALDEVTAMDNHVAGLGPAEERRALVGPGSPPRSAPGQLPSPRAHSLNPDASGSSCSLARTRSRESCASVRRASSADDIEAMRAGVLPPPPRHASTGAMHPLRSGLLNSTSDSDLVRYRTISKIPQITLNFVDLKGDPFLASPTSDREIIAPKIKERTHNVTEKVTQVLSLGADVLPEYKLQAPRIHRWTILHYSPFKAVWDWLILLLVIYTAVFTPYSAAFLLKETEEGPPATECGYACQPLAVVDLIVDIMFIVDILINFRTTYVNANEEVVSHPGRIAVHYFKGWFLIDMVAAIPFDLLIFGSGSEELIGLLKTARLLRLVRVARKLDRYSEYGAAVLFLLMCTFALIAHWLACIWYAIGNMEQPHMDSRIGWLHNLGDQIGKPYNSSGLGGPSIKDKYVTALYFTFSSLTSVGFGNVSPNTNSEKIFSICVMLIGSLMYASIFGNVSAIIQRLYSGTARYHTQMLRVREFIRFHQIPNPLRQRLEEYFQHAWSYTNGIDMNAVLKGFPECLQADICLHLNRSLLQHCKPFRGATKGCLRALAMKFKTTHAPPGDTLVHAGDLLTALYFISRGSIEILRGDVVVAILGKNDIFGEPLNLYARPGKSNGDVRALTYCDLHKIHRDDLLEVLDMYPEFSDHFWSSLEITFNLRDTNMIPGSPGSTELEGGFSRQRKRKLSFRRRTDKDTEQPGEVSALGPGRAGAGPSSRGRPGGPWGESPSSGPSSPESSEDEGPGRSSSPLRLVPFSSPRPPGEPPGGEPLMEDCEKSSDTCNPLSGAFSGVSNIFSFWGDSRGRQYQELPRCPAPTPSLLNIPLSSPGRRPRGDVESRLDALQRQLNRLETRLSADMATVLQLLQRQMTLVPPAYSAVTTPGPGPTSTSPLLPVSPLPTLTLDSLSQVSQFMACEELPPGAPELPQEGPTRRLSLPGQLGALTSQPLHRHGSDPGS
T1 sequence (Q12809 whole entry): as above

SMILES	Ki [1] [µM]	Ki at 1.5 h (hERG) [µM]	Ki (hERG product) [µM]
CN(C)C(=O)c1ccc(N2CCc3nc(OCCCN4CCCC4)ccc3C2)cn1 [Example 67, N,N-Dimethyl-5-[2-(3-pyrrolidin-1-ylpropoxy)-7,8-dihydro-1,6-naphthyridin-6(5H)-yl]pyridine-2-carboxamide]	0.0197	100	–
CNC(=O)c1ccc(N2CCc3nc(OCCCN4CCCC4)ccc3C2)nc1 [Example 44, N-methyl-6-[2-(3-pyrrolidin-1-ylpropoxy)-7,8-dihydro-1,6-naphthyridin-6(5H)-yl]nicotinamide]	0.0181	–	85.8
CC(C)N1CCC(Oc2ccc3c(n2)CCN(c2cnccn2)C3)CC1 [Example 71, 2-[(1-Isopropylpiperidin-4-yl)oxy]-6-pyrazin-2-yl-5,6,7,8-tetrahydro-1,6-naphthyridine]	0.0137	–	22.9
c1cnnc(N2CCc3nc(OCCCN4CCCCC4)ccc3C2)c1 [Example 29, 2-(3-piperidin-1-ylpropoxy)-6-pyridazin-3-yl-5,6,7,8-tetrahydro-1,6-naphthyridine]	0.0198	–	64.4
NC(=O)c1ccc(N2CCc3nc(OCCCN4CCCCC4)ccc3C2)nc1 [Example 48, 6-[2-(3-piperidin-1-ylpropoxy)-7,8-dihydro-1,6-naphthyridin-6(5H)-yl]nicotinamide]	0.0145	100	–
CNC(=O)c1ccc(N2CCc3nc(OCCCN4CCCC4)ccc3C2)cn1 [Example 65, N-Methyl-5-[2-(3-pyrrolidin-1-ylpropoxy)-7,8-dihydro-1,6-naphthyridin-6(5H)-yl]pyridine-2-carboxamide]	0.0163	–	46.1

These reach a lower Ki [1]. Values come first.

Ki [1] [µM]	SMILES	Ki at 1.5 h (hERG) [µM]	Ki (hERG product) [µM]
0.00467	CNC(=O)c1ccc(N2CCc3nc(OCCCN4CCC[C@H]4C)ccc3C2)cn1 [Example 64, N-Methyl-5-[2-{3-[(2R)-2-methylpyrrolidin-1-yl]propoxy}-7,8-dihydro-1,6-naphthyridin-6(5H)-yl]pyridine-2-carboxamide]	–	55.5
0.00524	C[C@H]1CCCN1CCCOc1ccc2c(n1)CCN(c1cnccn1)C2 [Example 26, 2-{3-[(2S)-2-methylpyrrolidin-1-yl]propoxy}-6-pyrazin-2-yl-5,6,7,8-tetrahydro-1,6-naphthyridine]	–	9.88
0.00632	CNC(=O)c1ccc(N2CCc3nc(OC4CCN(C(C)C)CC4)ccc3C2)nc1 [Example 70, 6-[2-[(1-Isopropylpiperidin4-yl)oxy]-7,8-dihydro-1,6-naphthyridin-6(5H)-yl]-N-methylnicotinamide]	–	94.4
0.00556	C[C@H]1CCCN1CCCOc1ccc2c(n1)CCN(c1cccnn1)C2 [Example 25, 2-{3-[(2S)-2-methylpyrrolidin-1-yl]propoxy}-6-pyridazin-3-yl-5,6,7,8-tetrahydro-1,6-naphthyridine]	–	55.9
0.00821	Cc1ccc(N2CCc3nc(OCCCN4CCC[C@H]4C)ccc3C2)cn1 [Example 24, 6-(6-methylpyridin-3-yl)-2-{3-[(2R)-2-methylpyrrolidin-1-yl]propoxy}-5,6,7,8-tetrahydro-1,6-naphthyridine]	–	35.6
0.00828	CNC(=O)c1ccc(N2CCc3nc(OCCCN4CCC[C@H]4C)ccc3C2)nc1 [Example 68, N-Methyl-6-[2-{3-[(2R)-2-methylpyrrolidin-1-yl]propoxy}-7,8-dihydro-1,6-naphthyridin-6(5H)-yl]nicotinamide]	100	–
0.0103	C[C@@H]1CCCN1CCCOc1ccc2c(n1)CCN(c1cnccn1)C2 [Example 23, 2-{3-[(2R)-2-methylpyrrolidin-1-yl]propoxy}-6-pyrazin-2-yl-5,6,7,8-tetrahydro-1,6-naphthyridine]	–	11.5
0.00486	Cc1ccc(N2CCc3nc(OC4CCN(C(C)C)CC4)ccc3C2)cn1 [Example 72, 2-[(1-isoproplpiperidin-4-yl)oxy]-6-(6-methylpyridin-3-yl)-5,6,7,8-tetrahydro-1,6-naphthyridine]	–	13.7
0.00916	C[C@@H]1CCCN1CCCOc1ccc2c(n1)CCN(c1cccnn1)C2 [Example 22, 2-{3-[(2R)-2-methylpyrrolidin-1-yl]propoxy}-6-pyridazin-3-yl-5,6,7,8-tetrahydro-1,6-naphthyridine]	–	51.8
